# Source: US9062066B2, “Anti-inflammatory compound having inhibitory activity against multiple tyrosine kinases and pharmaceutical composition containing same” (KOREA INSTITUTE OF SCIENCE AND TECHNOLOGY, priority 2010, dated 2015)
# Where two headings read alike, the source gives them in different places.
# Legend:
# [1] = test system: oxazolone-induced skin inflammation of Balb/C mouse ears; assay: mouse skin inflammatory model induced by oxazolone (ear thickness); assay type: in vivo; settings: 20 ul of 0.1% compound topical on ear, 36 hours after oxazolone
# Protocol: The compounds of the present invention were evaluated for their effective anti-inflammatory activity using a skin inflammatory animal model of 8 weeks old Balb/C mouse ears induced by oxazolone. […] After 4 days, the thickness of ear was measured using a caliper for the thickness value of ear before the induction of inflammation. […] After 36 hours, the thickness of ear was measured for the increased thickness induced by inflammation. […] The average value was obtained in each group (n=4).
# DDR1 tyrosine kinase = DDR1 tyrosine kinase (Homo sapiens (Human), UniProt Q08345); assay: in vitro DDR1 tyrosine kinase inhibition (GST-fused kinase domain); assay type: biochemical; settings: 1 uM compound; for inhibition at 1 µM: read-out: % inhibition against DDR1
# Sequence of DDR1 tyrosine kinase (Q08345 610-905): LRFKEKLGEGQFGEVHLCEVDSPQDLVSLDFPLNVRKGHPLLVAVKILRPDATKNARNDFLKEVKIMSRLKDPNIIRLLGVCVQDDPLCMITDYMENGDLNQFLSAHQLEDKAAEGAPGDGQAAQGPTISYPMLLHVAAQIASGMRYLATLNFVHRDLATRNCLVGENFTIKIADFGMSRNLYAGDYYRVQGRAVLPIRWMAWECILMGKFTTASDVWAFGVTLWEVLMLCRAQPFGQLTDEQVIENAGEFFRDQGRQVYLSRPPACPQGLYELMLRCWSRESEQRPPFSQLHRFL
# mouse skin fibroblast = assay: inhibition of migration of activated fibroblast (scratch wound); assay type: cell-based; settings: 0.5 uM compound, 10 ng/ml TGF-β1, 24 hours, read-out: Inhibition (%) of migration of activated fibroblast
# Protocol: The straight line of regular width was made using a micro pipette tip for a scratch wound on the mono-layer culture, and then the culture was exchanged to DMEM medium and incubated with 10 ng/ml of TGF-β1 in cell culture incubator of 37° C. for 24 hours. The cultured cells were fixed using formalin and stained with crystal violet. Photo-pictures were taken at 100× magnification in five location selected randomly in the scratched wound site of each stained culture dish and then the number of the cells moved into the scratched wound area was counted and averaged.
# Fgr tyrosine kinase = Fgr tyrosine kinase (Homo sapiens (Human), UniProt P09769); assay: in vitro Fgr tyrosine kinase inhibition; assay type: biochemical; settings: 1 uM compound; for inhibition at 1 µM: read-out: % inhibition against Fgr
# Sequence of Fgr tyrosine kinase (P09769 whole entry): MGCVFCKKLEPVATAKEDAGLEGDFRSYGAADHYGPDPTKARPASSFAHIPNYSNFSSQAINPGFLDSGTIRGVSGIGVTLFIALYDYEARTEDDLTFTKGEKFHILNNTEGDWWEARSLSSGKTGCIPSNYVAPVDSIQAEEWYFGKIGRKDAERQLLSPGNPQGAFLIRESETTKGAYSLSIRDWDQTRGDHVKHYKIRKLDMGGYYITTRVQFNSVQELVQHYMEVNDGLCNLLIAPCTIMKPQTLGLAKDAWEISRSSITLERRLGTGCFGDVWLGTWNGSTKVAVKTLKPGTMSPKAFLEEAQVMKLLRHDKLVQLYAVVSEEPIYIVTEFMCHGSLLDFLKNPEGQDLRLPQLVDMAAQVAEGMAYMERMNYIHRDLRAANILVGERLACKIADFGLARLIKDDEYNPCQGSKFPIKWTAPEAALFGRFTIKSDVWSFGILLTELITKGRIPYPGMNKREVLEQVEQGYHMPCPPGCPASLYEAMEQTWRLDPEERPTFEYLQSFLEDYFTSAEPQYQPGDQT
# [2] = test system: α-smooth muscle actin protein expression in skin fibroblast cells; assay: inhibition of α-smooth muscle actin expression in fibroblast activated by type I collagen and TGF-β1 (western blotting); assay type: cell-based, Balb/C mouse; settings: Mus musculus, 0.5 uM compound, 10 ng/ml TGF-β1, 48 hours, type I collagen, read-out: Inhibition (%) of α-smooth muscle actin increase
# From the text: When fibroblast, […] alpha smooth muscle cells are converted to myofibroblast by activation, one of characteristic features is that α-smooth muscle actin protein expression is increased. Also myoblast cells with the increased α-smooth muscle actin expression have a character of an increased migration. These phenomena appear together with the activation of inflammatory cells and the activated myoblast-type cells are known to contribute directly to the pathology of inflammatory diseases. […] In this experiment, the expression level of alpha smooth muscle actin can be quantificated by measuring the density of α-smooth muscle actin protein band with densitometer after developing the X-ray film of chemiluminescence signal in western blotting experiment.
# c-Src tyrosine kinase = c-Src tyrosine kinase (Homo sapiens (Human), UniProt P12931); assay: in vitro c-Src tyrosine kinase inhibition (32P-ATP, poly(D4Y)n substrate); assay type: biochemical; settings: 1 uM compound; for inhibition at 1 µM: read-out: % inhibition against c-Src
# Sequence of c-Src tyrosine kinase (P12931 whole entry, looked up): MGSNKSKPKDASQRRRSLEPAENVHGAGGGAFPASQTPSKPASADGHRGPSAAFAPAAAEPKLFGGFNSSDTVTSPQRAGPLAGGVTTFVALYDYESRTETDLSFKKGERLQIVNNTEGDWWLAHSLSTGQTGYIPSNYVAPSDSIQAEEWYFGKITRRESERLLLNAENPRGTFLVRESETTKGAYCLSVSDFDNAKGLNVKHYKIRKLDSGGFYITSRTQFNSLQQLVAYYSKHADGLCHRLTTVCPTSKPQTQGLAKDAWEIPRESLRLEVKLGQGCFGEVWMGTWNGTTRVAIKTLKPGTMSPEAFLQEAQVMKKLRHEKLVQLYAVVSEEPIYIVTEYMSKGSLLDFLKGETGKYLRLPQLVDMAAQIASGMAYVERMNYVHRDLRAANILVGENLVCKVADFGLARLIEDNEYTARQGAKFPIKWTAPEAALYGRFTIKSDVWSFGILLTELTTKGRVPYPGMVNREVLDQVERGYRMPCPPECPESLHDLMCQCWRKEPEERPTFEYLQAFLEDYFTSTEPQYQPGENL
# Lyn tyrosine kinase = Lyn tyrosine kinase (Homo sapiens (Human), UniProt P07948); assay: in vitro Lyn tyrosine kinase inhibition; assay type: biochemical; settings: 1 uM compound; for inhibition at 1 µM: read-out: % inhibition against Lyn
# Sequence of Lyn tyrosine kinase (P07948 whole entry): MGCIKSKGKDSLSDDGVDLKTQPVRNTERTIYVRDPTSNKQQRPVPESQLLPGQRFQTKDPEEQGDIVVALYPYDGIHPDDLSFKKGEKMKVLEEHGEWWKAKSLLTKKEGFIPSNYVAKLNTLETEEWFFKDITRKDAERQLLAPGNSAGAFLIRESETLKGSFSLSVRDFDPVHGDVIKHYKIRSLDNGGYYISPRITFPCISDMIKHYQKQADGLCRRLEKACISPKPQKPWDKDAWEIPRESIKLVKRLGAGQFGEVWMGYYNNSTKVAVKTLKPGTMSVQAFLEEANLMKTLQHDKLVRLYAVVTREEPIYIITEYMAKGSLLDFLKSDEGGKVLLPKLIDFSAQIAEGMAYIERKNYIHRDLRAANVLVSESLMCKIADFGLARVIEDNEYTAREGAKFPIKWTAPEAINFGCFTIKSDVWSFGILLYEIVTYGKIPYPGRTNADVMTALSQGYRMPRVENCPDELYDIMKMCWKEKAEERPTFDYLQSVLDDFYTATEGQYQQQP
# [3] = test system: TNF-α synthesis in J744A.1 macrophages; assay: inhibition of TNF-α synthesis in LPS-activated macrophages (ELISA); assay type: cell-based; settings: Macrophage, read-out: Inhibition (%) of TNF-α synthesis
# [4] = test system: NO synthesis in J744A.1 macrophage; assay: inhibition of nitric oxide (NO) synthesis in LPS-activated macrophages (Griess reagent); assay type: cell-based; settings: read-out: Inhibition (%) of NO synthesis
# DDR2 tyrosine kinase = DDR2 tyrosine kinase (Homo sapiens (Human), UniProt Q16832); assay: in vitro DDR2 tyrosine kinase inhibition (GST-fused kinase domain); assay type: biochemical; settings: 1 uM compound; for inhibition at 1 µM: read-out: % inhibition against DDR2
# Sequence of DDR2 tyrosine kinase (Q16832 563-849): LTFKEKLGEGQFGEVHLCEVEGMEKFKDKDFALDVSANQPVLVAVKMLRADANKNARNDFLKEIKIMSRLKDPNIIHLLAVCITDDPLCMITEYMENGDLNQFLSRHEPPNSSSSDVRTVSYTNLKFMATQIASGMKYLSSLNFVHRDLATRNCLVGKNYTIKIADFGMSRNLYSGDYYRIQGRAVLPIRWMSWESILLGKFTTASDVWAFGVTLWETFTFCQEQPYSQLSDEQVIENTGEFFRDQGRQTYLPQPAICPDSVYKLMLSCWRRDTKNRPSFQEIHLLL
# Hck tyrosine kinase = Hck tyrosine kinase (Homo sapiens (Human), UniProt P08631); assay: in vitro Hck tyrosine kinase inhibition; assay type: biochemical; settings: 1 uM compound; for inhibition at 1 µM: read-out: % inhibition against Hck
# Sequence of Hck tyrosine kinase (P08631 whole entry): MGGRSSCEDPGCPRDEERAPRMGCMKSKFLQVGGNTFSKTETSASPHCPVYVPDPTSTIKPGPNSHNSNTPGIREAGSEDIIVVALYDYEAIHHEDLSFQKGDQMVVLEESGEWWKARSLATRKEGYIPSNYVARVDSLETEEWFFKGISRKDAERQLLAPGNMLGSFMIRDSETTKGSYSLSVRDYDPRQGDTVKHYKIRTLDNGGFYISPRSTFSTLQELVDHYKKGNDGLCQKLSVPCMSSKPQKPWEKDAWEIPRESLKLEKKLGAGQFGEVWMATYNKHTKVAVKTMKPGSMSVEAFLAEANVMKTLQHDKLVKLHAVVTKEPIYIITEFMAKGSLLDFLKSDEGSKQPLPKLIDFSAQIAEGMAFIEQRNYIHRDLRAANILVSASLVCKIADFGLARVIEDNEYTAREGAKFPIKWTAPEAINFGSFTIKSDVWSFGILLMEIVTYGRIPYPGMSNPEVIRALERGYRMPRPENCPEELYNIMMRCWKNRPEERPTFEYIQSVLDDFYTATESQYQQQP
# [5] = 10 μM compound, 100 ng/ml LPS, 6 hours
Structure (SMILES),Inhibition (%) of increase of ear thickness [1] [%],inhibition at 1 µM (DDR1 tyrosine kinase) [%],inhibition at 0.5 µM (mouse skin fibroblast) [%],inhibition at 1 µM (Fgr tyrosine kinase) [%],inhibition at 0.5 µM [2] [%],inhibition at 1 µM (c-Src tyrosine kinase) [%],inhibition at 1 µM (Lyn tyrosine kinase) [%],"inhibition at 10 µM [3, 5] [%]","inhibition at 10 µM ([4]; 10 μM compound, LPS, 24 hours) [%]",inhibition at 1 µM (DDR2 tyrosine kinase) [%],inhibition at 1 µM (Hck tyrosine kinase) [%],inhibition at 10 µM ([3]; 6 h) [%],inhibition at 10 µM ([4]; 24 h) [%],% inhibition against DDR1 (DDR1 tyrosine kinase) [%],% inhibition against Fgr (Fgr tyrosine kinase) [%],% inhibition against c-Src (c-Src tyrosine kinase) [%],% inhibition against Lyn (Lyn tyrosine kinase) [%],% inhibition against DDR2 (DDR2 tyrosine kinase) [%],% inhibition against Hck (Hck tyrosine kinase) [%]
"CN1CCN(Cc2ccc(-c3cc4nccc(Nc5cccc(O)c5)c4s3)cc2)CC1 [LCB 03-0084, 3-(2-(4-((4-methylpiperazin-1-yl)methyl)phenyl)thieno[3,2-b]pyridin-7-ylamino)phenol]",49,> 80,36,> 60,57,> 60,> 60,64,85,> 80,> 60,,,,,,,,
"Oc1cccc(Nc2ncnc3cc(-c4ccc(CN5CCCCC5)s4)sc23)c1 [LCB 03-0093, 3-(6-(5-(piperidin-1-ylmethyl)thiophene-2-yl)thieno[3,2-d]pyrimidin-4-ylamino)phenol]",51,> 80,31,> 60,43,> 60,> 60,,,> 80,> 60,53,79,,,,,,
"Cl.OCCNCc1ccc(-c2cc3ncnc(Nc4cccc(O)c4)c3s2)cc1 [LCB 03-0070, 3-(6-(4-((2-hydroxyethylamino)methyl)phenyl)thieno[3,2-d]pyrimidin-4-ylamino)phenol]",55,> 80,30,> 80,42,> 80,> 80,77,90,> 80,> 80,,,,,,,,
"CCN(CC)Cc1cccc(-c2cc3ncnc(Nc4cccc(O)c4)c3s2)c1.Cl [LCB 03-0063, 3-(6-(3-((diethylamino)methyl)phenyl)thieno[3,2-d]pyrimidin-4-ylamino)phenol]",51,> 80,36,> 80,61,> 80,> 80,85,89,> 80,> 80,,,,,,,,
"Oc1cccc(Nc2ncnc3cc(-c4ccco4)sc23)c1 [LCB 03-0038, 3-(6-(furan-2-yl)thieno[3,2-d]pyrimidin-4-ylamino)phenol]",,> 70,,> 50,,> 60,> 60,85,88,> 70,> 50,,,,,,,,
"Oc1cccc(Nc2ccnc3cc(-c4ccc(CN5CCNCC5)cc4)sc23)c1 [LCB 03-0098, 3-(2-(4-(piperazin-1-ylmethyl)phenyl)thieno[3,2-b]pyridin-7-ylamino)phenol]",,> 80,34,> 30,51,> 30,> 30,,,> 80,> 30,,,,,,,,
"OCC1CCCN1Cc1ccc(-c2cc3ncnc(Nc4cccc(O)c4)c3s2)cc1 (stereo not drawn) [LCB 03-0057, 3-(6-(4-((2-(hydroxymethyl)pyrrolidin-1-yl)methyl)phenyl)thieno[3,2-d]pyrimidin-4-ylamino)phenol]",,> 80,,> 50,,> 50,> 50,64,87,> 80,> 50,,,,,,,,
"CCN(CC)C(=O)c1cccc(-c2cc3ncnc(Nc4cccc(O)c4)c3s2)c1 [LCB 03-0054, N,N-diethyl-3-(4-(3-hydroxyphenylamino)thieno[3,2-d]pyrimidin-6-yl)benzamide]",,> 80,,> 60,,> 60,> 50,77,92,> 80,> 60,,,,,,,,
"CCNCc1ccc(-c2cc3ncnc(Nc4cccc(O)c4)c3s2)s1 [LCB 03-0095, 3-(6-(5-((ethylamino)methyl)thiophene-2-yl)thieno[3,2-d]pyrimidin-4-ylamino)phenol]",43,> 80,23,> 60,37,> 60,> 60,,,> 80,> 50,,59,,,,,,
"CCNCc1ccc(-c2cc3nccc(Nc4cccc(O)c4)c3s2)cc1 [LCB 03-0099, 3-(2-(4-((ethylamino)methyl)phenyl)thieno[3,2-b]pyridin-7-ylamino)phenol]",,> 80,29,> 30,39,> 30,> 30,,,> 80,> 30,,,,,,,,
"Cl.Oc1cccc(Nc2ncnc3cc(-c4ccc(CN5CCC(O)C5)cc4)sc23)c1 (stereo not drawn) [LCB 03-0072, 1-(4-(4-(3-hydroxyphenylamino)thieno[3,2-d]pyrimidin-6-yl)benzyl)pyrrolidin-3-ol]",48,> 80,27,,39,,,59,76,> 80,,,,,,,,,
"Oc1cccc(Nc2ncnc3cc(-c4ccoc4)sc23)c1 [LCB 03-0039, 3-(6-(furan-3-yl)thieno[3,2-d]pyrimidin-4-ylamino)phenol]",,> 70,,> 50,,> 50,> 50,80,80,> 70,> 50,,,,,,,,
"COc1cccc(Nc2ncnc3cc(-c4cccs4)sc23)c1 [LCB 03-0030, (3-Methoxyphenyl)-(6-thiophene-2-yl-thieno[3,2-d]pyrimidin-4-yl)-amine]",,,,,,,,80,96,,,,,>70,>30,>40,>40,>70,>30
"Oc1cccc(Nc2ccnc3cc(-c4ccc(CN5CCCCC5)cc4)sc23)c1 [LCB 03-0097, 3-(2-(4-(piperidin-1-ylmethyl)phenyl)thieno[3,2-b]pyridin-7-ylamino)phenol]",,> 80,34,> 30,45,> 30,> 30,,,> 80,> 30,,,,,,,,
"COC[C@@H]1CCCN1C(=O)c1cc2nccc(Nc3ccc4c(c3)cc(C)n4C(=O)NC3CC3)c2s1 [Control compound 2, 5-(2-[(S)-2-(methoxymethyl)pyrrolidine-1-carbonyl]thieno[3,2-b]pyridine-7-ylamino)-2-methylindole-1-carboxyacid cycloprophylamide, reference compound]",,< 20,14,< 20,22,< 20,< 20,39,45,< 20,< 20,,,,,,,,
